# Laboratory results taken from BindingDB's records for doi:10.1021/jm050060l (University of Perugia Via Del Liceo, 2021).
# Columns and labels:
# [1] = molecular target: T1, Neuropeptide Y receptor type 1 (Homo sapiens, UniProt P25929); experiment: Displacement of 125I-PYY from human neuropeptide Y Y1 receptor expressed in human SK-N-MC cell membrane assessed as inhibition constant incubated for 1 hrs by competitive binding assay
# T1 sequence (P25929 whole entry): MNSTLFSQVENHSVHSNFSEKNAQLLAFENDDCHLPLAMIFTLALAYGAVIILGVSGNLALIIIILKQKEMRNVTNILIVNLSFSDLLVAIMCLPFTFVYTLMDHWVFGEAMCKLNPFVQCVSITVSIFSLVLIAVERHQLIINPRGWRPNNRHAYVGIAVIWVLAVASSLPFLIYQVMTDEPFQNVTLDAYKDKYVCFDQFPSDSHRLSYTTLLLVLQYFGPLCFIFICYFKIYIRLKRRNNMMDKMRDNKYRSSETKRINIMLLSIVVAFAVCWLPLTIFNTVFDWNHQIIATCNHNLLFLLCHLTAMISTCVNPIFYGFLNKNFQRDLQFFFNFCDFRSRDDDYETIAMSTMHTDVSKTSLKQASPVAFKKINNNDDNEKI
# [2] = molecular target: T2, C-X-C chemokine receptor type 2 (Homo sapiens, UniProt P25025); experiment: Antagonist activity at CXCR2 (unknown origin)
# T2 sequence (P25025 whole entry): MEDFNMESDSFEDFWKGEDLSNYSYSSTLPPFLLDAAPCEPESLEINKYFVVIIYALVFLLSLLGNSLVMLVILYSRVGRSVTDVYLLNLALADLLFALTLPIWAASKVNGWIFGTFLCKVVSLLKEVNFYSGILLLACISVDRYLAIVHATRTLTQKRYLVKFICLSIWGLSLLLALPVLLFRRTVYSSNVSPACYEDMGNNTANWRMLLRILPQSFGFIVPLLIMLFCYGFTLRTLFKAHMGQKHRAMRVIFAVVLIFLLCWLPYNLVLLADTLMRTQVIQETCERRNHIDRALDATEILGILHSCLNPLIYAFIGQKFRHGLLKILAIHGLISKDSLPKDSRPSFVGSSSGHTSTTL
# [3] = molecular target: T3, Bifunctional epoxide hydrolase 2 (Homo sapiens, UniProt P34913); experiment: Inhibition of recombinant soluble epoxide hydrolase (unknown origin) using [3H]1,3-diphenyl-trans-propene oxide as substrate assessed as inhibition constant incubated for 5 mins
# T3 sequence (P34913 whole entry): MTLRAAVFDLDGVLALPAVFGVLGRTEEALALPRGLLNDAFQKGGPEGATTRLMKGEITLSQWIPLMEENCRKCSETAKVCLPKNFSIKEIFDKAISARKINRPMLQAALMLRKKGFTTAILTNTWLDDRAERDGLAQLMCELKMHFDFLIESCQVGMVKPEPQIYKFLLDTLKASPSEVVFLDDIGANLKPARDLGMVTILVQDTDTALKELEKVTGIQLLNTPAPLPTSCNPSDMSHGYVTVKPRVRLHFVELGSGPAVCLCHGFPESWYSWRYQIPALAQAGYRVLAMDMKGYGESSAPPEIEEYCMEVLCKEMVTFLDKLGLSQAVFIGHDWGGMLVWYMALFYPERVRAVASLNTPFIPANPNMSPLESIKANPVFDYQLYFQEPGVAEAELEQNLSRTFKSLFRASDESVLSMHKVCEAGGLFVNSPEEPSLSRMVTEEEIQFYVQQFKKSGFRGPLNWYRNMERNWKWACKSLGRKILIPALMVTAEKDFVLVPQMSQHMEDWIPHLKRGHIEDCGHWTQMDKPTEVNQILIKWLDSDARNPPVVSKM
Structure (SMILES),Ki [1] [nM],other results
COC(=O)C1=CNC(C)=C(C(=O)OC)C1c1cccc(Nc2nnc(CN3CCC(c4cccc(OC)c4)CC3)o2)c1 (stereo unspecified),99,
"CN(C)C(=O)c1cccc(Nc2c(Nc3ccccc3)c(=O)c2=O)c1O [3-(3,4-dioxo-2-(phenylamino)cyclobut-1-enylamino)-2-hydroxy-N,N-dimethylbenzamide]",,IC50 [2]: 2 nM
"CCCCCCCCCCCCNC(=O)NC1CCCCC1 [US8815951, 297]",,Ki [3]: 7 nM

# Second part, led by results:
Ki [1] [nM],Structure (SMILES),other results
3.3,COC(=O)C1=C(C)NC(C)=C(C(=O)OC)C1c1cccc(NC(=O)NCCCN2CCC(c3cccc(OC)c3)CC2)c1,
5.1,COC(=O)C1=CNC(C)=C(C(=O)OC)C1c1cccc(N/C(=N/C#N)NCCCN2CCC(c3cccc(OC)c3)CC2)c1 (stereo unspecified),
21,COC(=O)C1=CNC(C)=C(C(=O)OC)C1c1cccc(Nc2c(NCCCN3CCC(c4cccc(OC)c4)CC3)c(=O)c2=O)c1 (stereo unspecified),
